Measured values published in patent US9938335B2, “Glucagon and GLP-1 co-agonist compounds” (Eli Lilly and Company, priority 2015, dated 2018).
Marks after values point to notes of the source that are not given here. Starred links: 1 amine or outer side, 2 acyl side, 3 side chain; linkers in the order of their positions; H or OH if unused. Non-standard residues stand in square brackets, D forms with d. Residues, ends and D or L forms follow the SMILES beside them. Groups on a side chain read outwards from the residue. *: point of attachment. C18 diacid = O=C(O)CCCCCCCCCCCCCCCCC(=O)*; γGlu = O=C(O)[C@H](CCC(=O)[*:2])N[*:1]; AEEA = NCCOCCOCC(=O)O; Aib = CC(C)(N)C(=O)O

Legend:
DIO mice (C57BL/6) = test: Acute treatment in DIO mice (PCSK9, FGF-21, cholesterol); type: in vivo, mouse; conditions: 30 nmol/kg sc, 16 hours post dose
Protocol: In order to investigate metabolic pathways involved with the treatment of compounds of the present invention independent of weight loss, compounds are tested in DIO mice (C57BL/6) acutely. The mice used are three to four months old on a high fat diet for at least 4 weeks. Animals are individually housed in a temperature-controlled (24° C.) facility with a 12 hour light/dark cycle (lights on 6:00), and free access to food and water. Vehicle or testing compounds were administered to mice by subcutaneous injection at 16:00 the day before the study day. Animals were sacrificed 16 hours later to collect blood via cardia puncture. Statistics are analyzed using ANOVA with Dunnett's comparison for JMP-6. Significance is denoted at p≤0.05 vs vehicle.
Food intake was decreased to a similar level in all treatment groups, which may indicate that changes in cholesterol, PCSK9 and FGF-21 are food-intake independent.

hGcg-R = hGcg-R (Homo sapiens, UniProt P47871); test: hGcg-R Binding Assay (SPA radioligand competition, 293HEK membranes); conditions: read-out: Ki, nM ± SEM at the hGcg-R
Sequence of hGcg-R (P47871 26-477): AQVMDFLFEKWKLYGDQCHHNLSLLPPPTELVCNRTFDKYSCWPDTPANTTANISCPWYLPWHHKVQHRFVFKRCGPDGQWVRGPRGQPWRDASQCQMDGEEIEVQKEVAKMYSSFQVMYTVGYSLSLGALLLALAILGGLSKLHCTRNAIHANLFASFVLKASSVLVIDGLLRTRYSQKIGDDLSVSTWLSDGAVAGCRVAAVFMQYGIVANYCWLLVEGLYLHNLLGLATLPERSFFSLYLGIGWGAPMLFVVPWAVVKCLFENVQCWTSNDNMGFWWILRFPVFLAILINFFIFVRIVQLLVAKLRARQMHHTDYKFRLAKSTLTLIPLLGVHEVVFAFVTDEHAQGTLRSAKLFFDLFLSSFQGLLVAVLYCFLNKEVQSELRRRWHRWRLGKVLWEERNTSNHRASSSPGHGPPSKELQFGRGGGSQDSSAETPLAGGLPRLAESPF

Ki (hGcg-R): 37.3 ± 4.2 nM
Structure (SMILES): CC(C)C[C@H](NC(=O)[C@H](CC(C)C)NC(=O)[C@H](Cc1c[nH]c2ccccc12)NC(=O)[C@H](CCC(=O)O)NC(=O)[C@@H](NC(=O)[C@H](Cc1ccccc1)NC(=O)[C@H](CCC(=O)O)NC(=O)[C@H](CCCCNC(=O)COCCOCCNC(=O)COCCOCCNC(=O)CC[C@H](NC(=O)CC[C@H](NC(=O)CCCCCCCCCCCCCCCCC(=O)O)C(=O)O)C(=O)O)NC(=O)[C@H](C)NC(=O)[C@H](CCCCN)NC(=O)[C@H](CCCCN)NC(=O)[C@H](CCC(=O)O)NC(=O)[C@H](CC(=O)O)NC(=O)[C@H](CC(C)C)NC(=O)[C@H](Cc1ccc(O)cc1)NC(=O)[C@H](CCCCN)NC(=O)[C@H](CO)NC(=O)[C@H](Cc1ccc(O)cc1)NC(=O)[C@H](CC(=O)O)NC(=O)[C@H](CO)NC(=O)[C@@H](NC(=O)[C@H](Cc1ccccc1)NC(=O)[C@@H](NC(=O)CNC(=O)[C@H](CCC(N)=O)NC(=O)C(C)(C)NC(=O)[C@@H](N)Cc1c[nH]cn1)[C@@H](C)O)[C@@H](C)O)C(C)C)C(=O)N[C@@H](CO)C(=O)NCC(=O)NCC(=O)N1CCC[C@H]1C(=O)N[C@@H](CO)C(=O)N[C@@H](CO)C(=O)NCC(N)=O [Compound 3] (H-H[Aib]QGTFTSDYSKYLDEKKAK([AEEA-AEEA-γGlu-γGlu-C18 diacid])EFVEWLLSGGPSSG-NH2; N-terminus assumed)
Cholesterol (% of vehicle) (DIO mice (C57BL/6)): 55.6* % of vehicle | FGF-21 (% of vehicle) (DIO mice (C57BL/6)): 1124* % of vehicle | PCSK9 (% of vehicle) (DIO mice (C57BL/6)): 15.6* % of vehicle
